According to PubChem BioAssay AID1963860 (Molecular Pharmacology Branch, DTP, NCI, 2024):

Test system: CN0375-F725-PDC KRAS spheroid viability
Assay: Anticancer human tumor CN0375-F725-PDC patient-derived colon carcinoma cell line growth inhibition [KRAS2]
Conditions: spheroids with HUVEC and MSC; for IC50: curve of first compound; for viability, T/C: stronger effect = lower value
How it was run: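 Combination screen of spheroid viability in tumor-cell co-cultures with endothelial (HUVEC) and mesenchymal stem cell stroma. Each agent was tested in half-log dilutions, topping at clinical Cmax or at 10 microM without a known Cmax.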

[1] = second compound 0.1 µM, first compound 0.000316 µM
[2] = second compound 0.1 µM, first compound 0.001 µM
[3] = second compound 0.1 µM, first compound 0.00316 µM
[4] = second compound 0.1 µM, first compound 0.01 µM
[5] = second compound 0.1 µM, first compound 0.0316 µM
[6] = second compound 0.316 µM, first compound 0.000316 µM
[7] = second compound 0.316 µM, first compound 0.001 µM
[8] = second compound 0.316 µM, first compound 0.00316 µM
[9] = second compound 0.316 µM, first compound 0.01 µM
[10] = second compound 0.316 µM, first compound 0.0316 µM
[11] = second compound 1 µM, first compound 0.000316 µM
[12] = second compound 1 µM, first compound 0.001 µM
[13] = second compound 1 µM, first compound 0.00316 µM
[14] = second compound 1 µM, first compound 0.01 µM
[15] = second compound 1 µM, first compound 0.0316 µM
[16] = second compound 3.16 µM, first compound 0.000316 µM
[17] = second compound 3.16 µM, first compound 0.001 µM
[18] = second compound 3.16 µM, first compound 0.00316 µM
[19] = second compound 3.16 µM, first compound 0.01 µM
[20] = second compound 3.16 µM, first compound 0.0316 µM
[21] = second compound 10 µM, first compound 0.000316 µM
[22] = second compound 10 µM, first compound 0.001 µM
[23] = second compound 10 µM, first compound 0.00316 µM
[24] = second compound 10 µM, first compound 0.01 µM
[25] = second compound 10 µM, first compound 0.0316 µM
[26] = second compound 0.1 µM, first compound 0.1 µM
[27] = second compound 0.316 µM, first compound 0.1 µM
[28] = second compound 1 µM, first compound 0.1 µM
[29] = second compound 3.16 µM, first compound 0.1 µM
[30] = second compound 10 µM, first compound 0.1 µM
[31] = second compound 0.1 µM, first compound 0.316 µM
[32] = second compound 0.1 µM, first compound 1 µM
[33] = second compound 0.1 µM, first compound 3.16 µM
[34] = second compound 0.1 µM, first compound 10 µM
[35] = second compound 0.316 µM, first compound 0.316 µM
[36] = second compound 0.316 µM, first compound 1 µM
[37] = second compound 0.316 µM, first compound 3.16 µM
[38] = second compound 0.316 µM, first compound 10 µM
[39] = second compound 1 µM, first compound 0.316 µM
[40] = second compound 1 µM, first compound 1 µM
[41] = second compound 1 µM, first compound 3.16 µM
[42] = second compound 1 µM, first compound 10 µM
[43] = second compound 3.16 µM, first compound 0.316 µM
[44] = second compound 3.16 µM, first compound 1 µM
[45] = second compound 3.16 µM, first compound 3.16 µM
[46] = second compound 3.16 µM, first compound 10 µM
[47] = second compound 10 µM, first compound 0.316 µM
[48] = second compound 10 µM, first compound 1 µM
[49] = second compound 10 µM, first compound 3.16 µM
[50] = second compound 10 µM, first compound 10 µM
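Note: spheroids exposed to agents for 7 days.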

CC(=O)Nc1cccc(-n2c(=O)n(C3CC3)c(=O)c3c(Nc4ccc(I)cc4F)n(C)c(=O)c(C)c32)c1 + COc1cc2nc(C)nc(NC(C)c3cc(N)cc(C(F)(F)F)c3)c2cc1OC1CCOC1
IC50 (second compound 0.1 µM): 4.1 nM
IC50 (second compound 0.316 µM): 3.26 nM
IC50 (second compound 1 µM): 1.85 nM
IC50 (second compound 3.16 µM): 0.913 nM
IC50 (second compound 10 µM): < 0.1 nM
viability, T/C (second compound 0.1 µM, first compound 0.0001 µM): 88.3%
viability, T/C [1]: 85.3%
viability, T/C [2]: 65%
viability, T/C [3]: 51.6%
viability, T/C [4]: 43.9%
viability, T/C [5]: 30.9%
viability, T/C (second compound 0.316 µM, first compound 0.0001 µM): 84.9%
viability, T/C [6]: 77.5%
viability, T/C [7]: 60.7%
viability, T/C [8]: 49.7%
viability, T/C [9]: 41.9%
viability, T/C [10]: 31.6%
viability, T/C (second compound 1 µM, first compound 0.0001 µM): 82.6%
viability, T/C [11]: 70.9%
viability, T/C [12]: 54.6%
viability, T/C [13]: 44.1%
viability, T/C [14]: 38.4%
viability, T/C [15]: 29.8%
viability, T/C (second compound 3.16 µM, first compound 0.0001 µM): 75.4%
viability, T/C [16]: 62.4%
viability, T/C [17]: 49.3%
viability, T/C [18]: 36.4%
viability, T/C [19]: 33.5%
viability, T/C [20]: 25.4%
viability, T/C (second compound 10 µM, first compound 0.0001 µM): 14%
viability, T/C [21]: 13.4%
viability, T/C [22]: 9.44%
viability, T/C [23]: 3.96%
viability, T/C [24]: 6.23%
viability, T/C [25]: 1.76%

CN(C)C/C=C/C(=O)Nc1cc2c(Nc3ccc(F)c(Cl)c3)ncnc2cc1O[C@H]1CCOC1 + COc1cc2nc(C)nc(NC(C)c3cc(N)cc(C(F)(F)F)c3)c2cc1OC1CCOC1
IC50 (second compound 0.1 µM): > 100 nM
IC50 (second compound 0.316 µM): > 100 nM
IC50 (second compound 1 µM): > 100 nM
IC50 (second compound 3.16 µM): > 100 nM
IC50 (second compound 10 µM): > 100 nM
viability, T/C [1]: 102%
viability, T/C [2]: 92.6%
viability, T/C [3]: 85.7%
viability, T/C [4]: 83.7%
viability, T/C [5]: 84.8%
viability, T/C [26]: 77.9%
viability, T/C [6]: 96%
viability, T/C [7]: 92.5%
viability, T/C [8]: 86.4%
viability, T/C [9]: 85.7%
viability, T/C [10]: 78.1%
viability, T/C [27]: 79.3%
viability, T/C [11]: 91.9%
viability, T/C [12]: 94.6%
viability, T/C [13]: 87.3%
viability, T/C [14]: 82.7%
viability, T/C [15]: 81.6%
viability, T/C [28]: 78.1%
viability, T/C [16]: 77.3%
viability, T/C [17]: 71.5%
viability, T/C [18]: 71.8%
viability, T/C [19]: 66.1%
viability, T/C [20]: 66.5%
viability, T/C [29]: 65.8%
viability, T/C [21]: 65.5%
viability, T/C [22]: 70.1%
viability, T/C [23]: 68.2%
viability, T/C [24]: 47%
viability, T/C [25]: 60.6%
viability, T/C [30]: 63.7%

COC(=O)c1ccc2c(C(=Nc3ccc(N(C)C(=O)CN4CCN(C)CC4)cc3)c3ccccc3)c(O)[nH]c2c1 + COc1cc2nc(C)nc(NC(C)c3cc(N)cc(C(F)(F)F)c3)c2cc1OC1CCOC1
IC50 (second compound 0.1 µM): 2140 nM
IC50 (second compound 0.316 µM): 3580 nM
IC50 (second compound 1 µM): 2400 nM
IC50 (second compound 3.16 µM): 1460 nM
IC50 (second compound 10 µM): < 31.6 nM
viability, T/C [5]: 97%
viability, T/C [26]: 102%
viability, T/C [31]: 91.3%
viability, T/C [32]: 87.1%
viability, T/C [33]: 31.2%
viability, T/C [34]: 0.21%
viability, T/C [10]: 97.9%
viability, T/C [27]: 99.5%
viability, T/C [35]: 86.3%
viability, T/C [36]: 85.3%
viability, T/C [37]: 55.4%
viability, T/C [38]: 0.5%
viability, T/C [15]: 91.8%
viability, T/C [28]: 91.5%
viability, T/C [39]: 85%
viability, T/C [40]: 77%
viability, T/C [41]: 41.6%
viability, T/C [42]: 0.19%
viability, T/C [20]: 85.8%
viability, T/C [29]: 78.8%
viability, T/C [43]: 80.6%
viability, T/C [44]: 66.8%
viability, T/C [45]: 16.1%
viability, T/C [46]: 0.48%
viability, T/C [25]: 18.3%
viability, T/C [30]: 18.9%
viability, T/C [47]: 13.1%
viability, T/C [48]: 9.52%
viability, T/C [49]: 1.91%
viability, T/C [50]: 0.15%

COc1cc(Nc2ncc3c(n2)-c2ccc(Cl)cc2C(c2c(F)cccc2OC)=NC3)ccc1C(=O)O + COc1cc2nc(C)nc(NC(C)c3cc(N)cc(C(F)(F)F)c3)c2cc1OC1CCOC1
IC50 (second compound 0.1 µM): > 10000 nM
IC50 (second compound 0.316 µM): > 10000 nM
IC50 (second compound 1 µM): > 10000 nM
IC50 (second compound 3.16 µM): > 10000 nM
IC50 (second compound 10 µM): < 31.6 nM
viability, T/C [5]: 95.9%
viability, T/C [26]: 93.2%
viability, T/C [31]: 88.8%
viability, T/C [32]: 88.2%
viability, T/C [33]: 87.3%
viability, T/C [34]: 71.8%
viability, T/C [10]: 97%
viability, T/C [27]: 97.6%
viability, T/C [35]: 90.5%
viability, T/C [36]: 87.8%
viability, T/C [37]: 83.1%
viability, T/C [38]: 71.8%
viability, T/C [15]: 91.7%
viability, T/C [28]: 95.6%
viability, T/C [39]: 89.8%
viability, T/C [40]: 85.1%
viability, T/C [41]: 83.9%
viability, T/C [42]: 69.4%
viability, T/C [20]: 84.8%
viability, T/C [29]: 88.3%
viability, T/C [43]: 72.7%
viability, T/C [44]: 79%
viability, T/C [45]: 75.9%
viability, T/C [46]: 64.6%
viability, T/C [25]: 27.6%
viability, T/C [30]: 15.6%
viability, T/C [47]: 13.9%
viability, T/C [48]: 15.7%
viability, T/C [49]: 15.5%
viability, T/C [50]: 7.94%

O=C(c1cc(Cc2n[nH]c(=O)c3ccccc23)ccc1F)N1CCN(C(=O)C2CC2)CC1 + COc1cc2nc(C)nc(NC(C)c3cc(N)cc(C(F)(F)F)c3)c2cc1OC1CCOC1
IC50 (second compound 0.1 µM): > 10000 nM
IC50 (second compound 0.316 µM): > 10000 nM
IC50 (second compound 1 µM): > 10000 nM
IC50 (second compound 3.16 µM): > 10000 nM
IC50 (second compound 10 µM): > 10000 nM
viability, T/C [5]: 105%
viability, T/C [26]: 106%
viability, T/C [31]: 98.4%
viability, T/C [32]: 107%
viability, T/C [33]: 98.2%
viability, T/C [34]: 106%
viability, T/C [10]: 102%
viability, T/C [27]: 103%
viability, T/C [35]: 97.8%
viability, T/C [36]: 98.8%
viability, T/C [37]: 98.8%
viability, T/C [38]: 93.2%
viability, T/C [15]: 111%
viability, T/C [28]: 107%
viability, T/C [39]: 99%
viability, T/C [40]: 97.8%
viability, T/C [41]: 107%
viability, T/C [42]: 93.5%
viability, T/C [20]: 92.8%
viability, T/C [29]: 95.4%
viability, T/C [43]: 85.8%
viability, T/C [44]: 84.6%
viability, T/C [45]: 84.9%
viability, T/C [46]: 71.5%
viability, T/C [25]: 82.2%
viability, T/C [30]: 81.4%
viability, T/C [47]: 79.3%
viability, T/C [48]: 69.9%
viability, T/C [49]: 104%
viability, T/C [50]: 98%
